This note sets out measurements from US5393768A, “Leukotriene antagonists” (Eli Lilly and Company, priority 1993, dated 1995).

Assay [1] concerns LTD4 evoked contractions of guinea pig ileum. The experiment in a line: Percent inhibition of LTD4 evoked ileal contractions (single submaximal LTD4 response, 5 minute drug exposure). The assay is classed as cell-based, guinea pig (male, Hartley). Particulars: Cavia porcellus; for inhibition at 1 µM: Compound concentration 1 × 10^-6 M; for inhibition at 0.3 µM: Compound concentration 3 × 10^-7 M; for inhibition at 0.1 µM: Compound concentration 1 × 10^-7 M. As for the experimental part: Male, Hartley guinea pigs weighing 200-450 grams were killed by decapitation. A section of terminal ileum was removed, the lumen cleaned, and the tissue divided into 2.5 cm. segments. The ilea were mounted in 10 ml. tissue baths containing Krebs-bicarbonate solution of the following composition in mmoles/-liter: KCl, 4.6; CaCl2 ·2H2 O, 1.2; KH2 PO4, 1.2; MgSO4 ·7H2 O, 1.2; NaCl, 118.2; NaHCO3, 24.8; and dextrose, 10.0. The bath fluid was maintained at 37° C. and aerated with 95 percent oxygen and 5 percent CO2. In addition, the buffer contained 1×10^-6 M atropine to reduce ileal spontaneous activity. Isometric measurements were made with a Grass FTO3C force-displacement transducer and recorded on a Grass polygraph as change in grams of force. A passive force of 0.5 g. was applied to the tissues. After an appropriate equilibration period, single submaximal control responses to pure LTD4 were obtained. Following a five minute exposure of the ileum to an experimental drug, the control concentration of LTD was added to the tissue bath. The response of the ileum to LTD4 in the presence of the drug was compared to the response in the absence of the drug.

Assay [2] addresses T1, LTD4 evoked contractions of guinea pig ileum (Cavia porcellus, UniProt Q2NNR5).
T1 construct: A section of terminal ileum was removed, the lumen cleaned, and the tissue divided into 2.5 cm. segments; from tissue; host or cells: terminal ileum of male Hartley guinea pigs
T1 sequence (Q2NNR5 1-340): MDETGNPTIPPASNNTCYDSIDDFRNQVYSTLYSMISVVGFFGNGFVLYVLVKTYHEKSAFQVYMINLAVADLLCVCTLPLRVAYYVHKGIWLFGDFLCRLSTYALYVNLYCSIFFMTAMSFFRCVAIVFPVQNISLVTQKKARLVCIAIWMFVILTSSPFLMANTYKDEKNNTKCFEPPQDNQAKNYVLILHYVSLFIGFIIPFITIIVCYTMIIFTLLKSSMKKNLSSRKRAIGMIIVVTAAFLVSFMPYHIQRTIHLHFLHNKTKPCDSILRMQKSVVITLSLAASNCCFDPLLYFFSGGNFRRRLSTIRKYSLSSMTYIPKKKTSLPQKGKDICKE
The experiment in a line: LTD4 antagonism, cumulative concentration-response curves (Schild pA2). The assay is classed as cell-based. Particulars: 30 minute incubation, negative log of KB. As for the experimental part: For some of the drugs in this series a more detailed analysis of LTD4 antagonism was made. In these experiments, cumulative concentration-response curves were obtained to LTD4 in guinea pig ileum and trachea. This was followed by a 30 minute incubation with various concentrations of the experimental drug. The concentration response curve to LTD4 was then repeated in the presence of the antagonist. Only one concentration of antagonist was used on a single tissue. KB values were calculated by the method of Furchgott [Ann. N.Y. Acad. Sci., 139, 553 (1967)] using the following equation. [formula]
Dose ratio refers to the concentration of agonist required to elicit 50 percent of the maximal response (ED50) in the presence of the antagonist divided by the ED50 in the absence of the antagonist. Calculations were performed with the aid of a computer and a digital plotter.

By inhibition is commonly meant the relative decrease from the control value, in per cent. A low value points to little suppression. For orientation: Kb means the affinity of an antagonist, worked out from how it opposes an agonist. High values mean a less potent antagonist, low ones a more potent antagonist. In assay [1], `CCCc1c(C=Cc2ccc(-c3nn[nH]n3)cc2)ccc(C(C)=O)c1O` [Example 45, 5-[4-(2-[4-Acetyl-3-hydroxy-2-propylphenyl]ethenyl)phenyl]-tetrazole] showed an inhibition at 1 µM of 74% and an inhibition at 0.3 µM of 57%. Also, in assay [2], the Kb is 186 nM.

With `CCCc1c(CNc2ccc(C(=O)O)cc2)ccc(C(C)=O)c1O` [Example 47, 4-(4-Acetyl-3-hydroxy-2-propylbenzylamino)benzoic acid], in assay [1], the inhibition at 1 µM stood at 70% and the inhibition at 0.3 µM worked out at 36%. Moreover, in assay [2], the Kb is 490 nM.

In assay [1], `CCCc1c(COCCCCc2nnn[nH]2)ccc(C(C)=O)c1O` [Example 49, 5-[4-(4-Acetyl-3-hydroxy-2-propylbenzyloxy)butyl]-tetrazole] had an inhibition at 1 µM of 64% and an inhibition at 0.3 µM of 36%. Moreover, the antagonist dissociation constant (Kb) in assay [2] is 550 nM.

In assay [1], `CCCc1c(COCCOc2ccc(-c3nnn[nH]3)cc2)ccc(C(C)=O)c1O` [Example 52, 5-(4-[2-(4-Acetyl-3-hydroxy-2-propylbenzyloxy)ethoxy]phenyl)-tetrazole] yielded an inhibition at 0.1 µM of 67% and an inhibition at 0.3 µM of 83%. The same molecule had an inhibition at 0.03 µM in assay [1] (Compound concentration 3 × 10^-8 M) of 39%. Moreover, in assay [2], the Kb is 49 nM.

On to `CCCc1c(C[S+]([O-])Cc2ccc(-c3nnn[nH]3)cc2)ccc(C(C)=O)c1O` (centres unmarked) [Example 53, 5-[4-(4-Acetyl-3-hydroxy-2-propylbenzylsulfinylmethyl)phenyl]-tetrazole], for which, in assay [1], testing at 0.1 µM gave an inhibition of 14% and 0.3 µM produced 4% inhibition. The molecule also gave an inhibition at 3 µM in assay [1] (Compound concentration 3 × 10^-6 M) of 39%. Further, in assay [2], the Kb was 6310 nM.
